Assay [1] deals with T1, Hordeum HPPD (SEQ ID NO:2) (Hordeum vulgare, UniProt O48604, A164G/R146V/R147D/R148G).
T1 construct: subcloned into a modified pET24D (Novagen) expression vector resulting in N-terminally His-tagged expression constructs; His (N); made in house; host or cells: E. coli BL21 (DE3)
Briefly: HPPD activity assay, in vitro characterization. The assay is classed as biochemical. As for the experimental part: (§1) HPPD produces homogentisic acid and CO2 from 4-hydroxyphenylpyruvate (4-HPP) and O2. The activity assay for HPPD is based on the analysis of homogentisic acid by reversed phase HPLC.
(§2) The assay mixture can contain 150 mM potassium phosphate buffer pH 7.0, 50 mM L-ascorbic acid, 100 μM Catalase (Sigma-Aldrich), 1 μM FeSO4 and 0.2 units of purified HPPD enzyme in a total volume of 505 μl. 1 unit is defined as the amount of enzyme that is required to produce 1 nmol of HGA per minute at 20° C.
(§3) After a preincubation of 30 min the reaction is started by adding 4-HPP to a final concentration of 0.05 mM. The reaction is allowed to proceed for 45 min at room temperature. The reaction is stopped by the addition of 50 μl of 4.5 M phosphoric acid. The sample is filtered using a […] pore size PVDF filtration device.
(§4) 5 μl of the cleared sample is analyzed on an UPLC HSS T3 column (particle size 1.8 μm, dimensions 2,1×50 mm; Waters) by isocratic elution using 90% 20 mM NaH2PO4 pH 2.2, 10% methanol (v/v).
(§5) HGA is detected electrochemically at 750 mV (mode: DC; polarity: positive) and quantified by integrating peak areas (Empower software; Waters).
(§6) Inhibitors are dissolved in DMSO (dimethylsulfoxide) to a concentration of 0.5 mM. From this stock solution serial five-fold dilutions are prepared in DMSO, which are used in the assay. The respective inhibitor solution accounts for 1% of the assay volume. […] Activities are normalized by setting the uninhibited enzyme activity to 100%. IC50 values are calculated using non-linear regression.
(§7) Using methods which are described in the above examples or well known in the art, purified, recombinant wildtype HPPD enzymes are characterized with respect to their kinetic properties and sensitivity towards HPPD inhibiting herbicides. Apparent michaelis constants (Km) and maximal reaction velocities (Vmax) are calculated by non-linear regression with the software GraphPad Prism 5 (GraphPad Software, La Jolla, USA) using a substrate inhibition model. […] Weighted means (by standard error) of Km and IC50 values are calculated from at least three independent experiments. […] To assess the potential performance of a herbicide tolerance trait a tolerance index (TI) is calculated using the following formula: […]

A further assay deals with T2, Arabidopsis HPPD (Arabidopsis thaliana, UniProt P93836).
T2 construct: His6 (N); made in house; host or cells: E. coli BL21 (DE3)
T2 sequence (P93836 1-445): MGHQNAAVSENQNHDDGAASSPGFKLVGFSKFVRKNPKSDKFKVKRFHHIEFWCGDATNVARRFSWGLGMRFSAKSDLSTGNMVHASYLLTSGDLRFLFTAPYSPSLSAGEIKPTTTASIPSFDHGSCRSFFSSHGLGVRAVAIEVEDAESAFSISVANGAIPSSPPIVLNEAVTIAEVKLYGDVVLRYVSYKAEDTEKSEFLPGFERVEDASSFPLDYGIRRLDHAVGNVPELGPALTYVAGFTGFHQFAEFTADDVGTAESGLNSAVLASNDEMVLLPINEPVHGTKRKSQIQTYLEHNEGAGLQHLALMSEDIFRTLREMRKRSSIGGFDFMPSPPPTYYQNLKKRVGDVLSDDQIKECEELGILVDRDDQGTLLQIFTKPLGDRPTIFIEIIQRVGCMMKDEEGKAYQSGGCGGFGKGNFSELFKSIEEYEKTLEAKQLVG
As to the kind of experiment: HPPD activity assay (homogentisic acid by HPLC), in vitro characterization. The assay is classed as biochemical. As for the experimental part:
as §1, §2, §3, §4, §5, §6, §7

Assay [2] has as its system transgenic Arabidopsis plants. Briefly: Greenhouse testing of transgenic Arabidopsis plants (T2), herbicide spray test. The note with it: for Injury evaluation, scale 0-100%: Arabidopsis. The assay is classed as in vivo, Arabidopsis thaliana. As for the experimental part:
Transgenic plants expressing heterologous HPPD or HST enzymes are tested for tolerance against HPPD-inhibiting herbicides in greenhouse experiments.
For post emergence treatment, the test plants are first grown to a height of 3 to 15 cm, depending on the plant habit, and only then treated with the herbicides. For this purpose, the test plants are either sown directly and grown in the same containers, or they are first grown separately and transplanted into the test containers a few days prior to treatment. For testing of T0 plants, cuttings can be used. In the case of soybean plants, an optimal shoot for cutting is about 7.5 to 10 cm tall, with at least two nodes present. Each cutting is taken from the original transformant (mother plant) and dipped into rooting hormone powder (indole-3-butyric acid, IBA). The cutting is then placed in oasis wedges inside a bio-dome. Wild type cuttings are also taken simultaneously to serve as controls. The cuttings are kept in the bio-dome for 5-7 days and then transplanted to pots and then acclimated in the growth chamber for two more days. Subsequently, the cuttings are transferred to the greenhouse, acclimated for approximately 4 days, and then subjected to spray tests as indicated.
Additionally, T1 and T2 transgenic Arabidopsis plants can be tested for improved tolerance to HPPD-inhibiting herbicides in a greenhouse studies. Herbicide injury scoring is done 2-3 weeks after treatment and is rated on a scale of 0 to 100%, 0% being no injury and 100% being complete death.

The values below come from patent publication US11230717B2, “Plants having increased tolerance to herbicides” (BASF SE, priority 2013, dated 2022).

As a reminder, the Km is the substrate concentration at which the rate is half of its maximum. As usually defined, the kcat is the maximal rate divided by the concentration of active sites. A word on the Ki: it is a dissociation constant, usually derived from enzyme kinetics or from competition with a known ligand. Low values mean tighter binding, high ones weaker binding.

The structures appear in SMILES notation.

T1 sequence (O48604 whole entry R146V/R147D/R148G/A164G): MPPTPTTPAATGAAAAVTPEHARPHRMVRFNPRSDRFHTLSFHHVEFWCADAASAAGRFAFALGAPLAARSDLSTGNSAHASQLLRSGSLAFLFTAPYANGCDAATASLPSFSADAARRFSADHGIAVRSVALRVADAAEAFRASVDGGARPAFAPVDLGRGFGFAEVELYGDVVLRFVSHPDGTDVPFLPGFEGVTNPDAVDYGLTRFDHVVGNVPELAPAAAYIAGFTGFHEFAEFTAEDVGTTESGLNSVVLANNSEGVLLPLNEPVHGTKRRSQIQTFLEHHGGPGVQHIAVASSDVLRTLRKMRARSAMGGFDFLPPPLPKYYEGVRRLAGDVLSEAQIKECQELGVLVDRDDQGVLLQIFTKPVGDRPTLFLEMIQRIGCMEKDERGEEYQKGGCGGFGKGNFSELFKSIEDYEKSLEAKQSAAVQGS

On to `O=C(O)C(=O)Cc1ccc(O)cc1` [Inhibitor 4-HPP, 4-hydroxyphenylpyruvate, reference compound], for which the Km in assay [1] (Hordeum HPPD, apparent michaelis constant, read-out: Km (4-HPP)) is 26 µM; at Arabidopsis HPPD (Arabidopsis HPPD, apparent michaelis constant, read-out: Km (4-HPP)), 13 µM. The kcat in assay [1] (Hordeum HPPD, turnover number, substrate 4-HPP) was found to be 11.5 s⁻¹; at Arabidopsis HPPD (Arabidopsis HPPD, turnover number, substrate 4-HPP), 12.9 s⁻¹.

Consider `CSc1c(Cl)cc(F)c(C(=O)Nc2nnnn2C)c1Cl` [Inhibitor 2, 2,4-dichloro-6-fluoro-3-methylsulfanyl-N-(1-methyltetrazol-5-yl)benzamide], for which the tolerance factor entry in assay [2] (Arabidopsis HvL320H, P321A, highest rate active ingredient applied) is “outstanding tolerance factor”. Moreover, in assay [2] (Arabidopsis expressing Rhodococcus HPPD (SEQ ID NO:46), highest concentration), the “tolerance compared to untransformed wild-type control” value was 2 fold. The “Injury evaluation, scale 0-100%” value in assay [2] (transgene AtF381I, 3.125 g/ha, two weeks) worked out at 20%; in assay [2] (transgene AtF381I, 6.25 g/ha, two weeks), 25%; in assay [2] (transgene AtF381I, 12.5 g/ha, two weeks), 40%; in assay [2] (transgene AtM335H, P336A, E363Q, 1.56 g/ha, two weeks) it was 0%; in assay [2] (transgene AtM335H, P336A, E363Q, 3.125 g/ha, two weeks), 7%; in assay [2] (transgene AtM335H, P336A, E363Q, 6.25 g/ha, two weeks), 7%. Also, the “Injury evaluation, scale 0-100%” value was 47% in assay [2] (transgene AtM335H, P336A, E363Q, 12.5 g/ha, two weeks); 0% in assay [2] (transgene HvL320H, P321A, 1.56 g/ha, two weeks); 5% in assay [2] (transgene HvL320H, P321A, 3.125 g/ha, two weeks); 7% in assay [2] (transgene HvL320H, P321A, 6.25 g/ha, two weeks); 8% in assay [2] (transgene HvL320H, P321A, 12.5 g/ha, two weeks); 0% in assay [2] (transgene HvL320H, 1.56 g/ha, two weeks). Also, the “Injury evaluation, scale 0-100%” value in assay [2] (transgene HvL320H, 3.125 g/ha, two weeks) turned out to be 12%; in assay [2] (transgene HvL320H, 6.25 g/ha, two weeks) it was 18%; in assay [2] (transgene HvL320H, 12.5 g/ha, two weeks), 33%; in assay [2] (transgene None, 1.56 g/ha, two weeks after treatment), 86%; in assay [2] (transgene None, 3.125 g/ha, two weeks after treatment), 87%; in assay [2] (transgene None, 6.25 g/ha, two weeks after treatment), 98%. The “Injury evaluation, scale 0-100%” value in assay [2] (transgene None, 12.5 g/ha, two weeks after treatment) was found to be 94%; in assay [2] (transgene RjHPPD, 1.56 g/ha, two weeks), 2%; in assay [2] (transgene RjHPPD, 3.125 g/ha, two weeks), 12%; in assay [2] (transgene RjHPPD, 6.25 g/ha, two weeks), 13%; in assay [2] (transgene RjHPPD, 12.5 g/ha, two weeks) it was 46%. In addition, the values for the Ki (in assay [1]; at Arabidopsis HPPD) were 11 nM and 20 nM, respectively.
